# Assay results published in PubChem BioAssay (NCI).
#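 Five compound concentrations were applied to cells in 96-well plates for 48 hours; endpoints were derived by simple linear interpolation of the resulting dose-response curve. TGI: concentration producing complete growth inhibition.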
# Tests used:
# Assay in all cases: NCI anticancer screen, dose series, 48 h
# OVCAR-5 ovarian = tested on: OVCAR-5 ovarian
# MALME-3M melanoma = tested on: MALME-3M melanoma
# HT29 colon = tested on: HT29 colon
# SF-268 CNS = tested on: SF-268 CNS
# SK-MEL-5 melanoma = tested on: SK-MEL-5 melanoma
# HCT-15 colon = tested on: HCT-15 colon
# EKVX NSCLC = tested on: EKVX NSCLC
# HCC-2998 colon = tested on: HCC-2998 colon
# SNB-75 CNS = tested on: SNB-75 CNS
# COLO 205 colon = tested on: COLO 205 colon
# NCI-H23 lung = tested on: NCI-H23 lung
# OVCAR-8 ovarian = tested on: OVCAR-8 ovarian
# SK-OV-3 ovarian = tested on: SK-OV-3 ovarian
# A498 renal = tested on: A498 renal
# TK-10 renal = tested on: TK-10 renal
# SF-295 CNS = tested on: SF-295 CNS
# U251 CNS = tested on: U251 CNS
# PC-3 prostate = tested on: PC-3 prostate
# UACC-257 melanoma = tested on: UACC-257 melanoma
# OVCAR-4 ovarian = tested on: OVCAR-4 ovarian
# DU-145 prostate = tested on: DU-145 prostate
# CAKI-1 renal = tested on: CAKI-1 renal
# NCI-H522 lung = tested on: NCI-H522 lung
# CCRF-CEM leukemia = tested on: CCRF-CEM leukemia
# RXF 393 renal = tested on: RXF 393 renal
# SK-MEL-2 melanoma = tested on: SK-MEL-2 melanoma
# MCF7 breast = tested on: MCF7 breast
# ACHN renal = tested on: ACHN renal
# T-47D breast = tested on: T-47D breast
# A549 NSCLC = tested on: A549 NSCLC
# HS 578T breast = tested on: HS 578T breast
# HL-60(TB) leukemia = tested on: HL-60(TB) leukemia
# RPMI-8226 leukemia = tested on: RPMI-8226 leukemia
# SN12C renal = tested on: SN12C renal
# IGROV1 ovarian = tested on: IGROV1 ovarian
# K-562 leukemia = tested on: K-562 leukemia
# M14 melanoma = tested on: M14 melanoma
# SR leukemia = tested on: SR leukemia
# SK-MEL-28 melanoma = tested on: SK-MEL-28 melanoma
# BT-549 breast = tested on: BT-549 breast
# HCT-116 colon = tested on: HCT-116 colon
# SF-539 CNS = tested on: SF-539 CNS
# MDA-MB-231 breast = tested on: MDA-MB-231 breast
# 786-0 renal = tested on: 786-0 renal
# NCI/ADR-RES ovarian = tested on: NCI/ADR-RES ovarian
# KM12 colon = tested on: KM12 colon
# HOP-62 NSCLC = tested on: HOP-62 NSCLC
# LOX IMVI melanoma = tested on: LOX IMVI melanoma
# SNB-19 CNS = tested on: SNB-19 CNS
# UACC-62 melanoma = tested on: UACC-62 melanoma
# OVCAR-3 ovarian = tested on: OVCAR-3 ovarian
# MOLT-4 leukemia = tested on: MOLT-4 leukemia
# NCI-H460 lung = tested on: NCI-H460 lung
# UO-31 renal = tested on: UO-31 renal
# MDA-N = tested on: MDA-N
# NCI-H226 lung = tested on: NCI-H226 lung
# SW-620 colon = tested on: SW-620 colon
# MDA-MB-435 = tested on: MDA-MB-435
# HOP-92 NSCLC = tested on: HOP-92 NSCLC
smiles,measurement,setting,value
Cc1cc2c(c(C=Nc3ccc(N(C)C)cc3)c1)OC1(C=C2)Oc2ccccc2C(=O)N1C (stereo not drawn),TGI,OVCAR-5 ovarian,32.4 µM
same,TGI,MALME-3M melanoma,33.4 µM
same,TGI,HT29 colon,57.2 µM
same,TGI,SF-268 CNS,45.4 µM
same,TGI,SK-MEL-5 melanoma,27.6 µM
same,TGI,HCT-15 colon,27.6 µM
same,TGI,EKVX NSCLC,27.1 µM
same,TGI,HCC-2998 colon,30.2 µM
same,TGI,SNB-75 CNS,39.5 µM
same,TGI,COLO 205 colon,33.9 µM
same,TGI,NCI-H23 lung,28.4 µM
same,TGI,OVCAR-8 ovarian,42.9 µM
same,TGI,SK-OV-3 ovarian,66.6 µM
same,TGI,A498 renal,42.1 µM
same,TGI,TK-10 renal,30.7 µM
same,TGI,SF-295 CNS,46.5 µM
same,TGI,U251 CNS,28.7 µM
same,TGI,PC-3 prostate,> 52.5 µM
same,TGI,UACC-257 melanoma,28.1 µM
same,TGI,OVCAR-4 ovarian,25.1 µM
same,TGI,DU-145 prostate,27.9 µM
same,TGI,CAKI-1 renal,28 µM
same,TGI,NCI-H522 lung,36.9 µM
same,TGI,CCRF-CEM leukemia,17.5 µM
same,TGI,RXF 393 renal,> 58 µM
same,TGI,SK-MEL-2 melanoma,> 54.8 µM
same,TGI,MCF7 breast,37.9 µM
same,TGI,ACHN renal,25.5 µM
same,TGI,T-47D breast,57.5 µM
same,TGI,A549 NSCLC,55.6 µM
same,TGI,HS 578T breast,> 90.4 µM
same,TGI,HL-60(TB) leukemia,19.9 µM
same,TGI,RPMI-8226 leukemia,31.1 µM
same,TGI,SN12C renal,30 µM
same,TGI,IGROV1 ovarian,27.1 µM
same,TGI,K-562 leukemia,21.1 µM
same,TGI,M14 melanoma,30 µM
same,TGI,SR leukemia,> 100 µM
same,TGI,SK-MEL-28 melanoma,29.7 µM
same,TGI,BT-549 breast,29.4 µM
same,TGI,HCT-116 colon,21.6 µM
same,TGI,SF-539 CNS,28.2 µM
same,TGI,MDA-MB-231 breast,24.8 µM
same,TGI,786-0 renal,28.2 µM
same,TGI,NCI/ADR-RES ovarian,> 60.7 µM
same,TGI,KM12 colon,31 µM
same,TGI,HOP-62 NSCLC,> 67.5 µM
same,TGI,LOX IMVI melanoma,29.7 µM
same,TGI,SNB-19 CNS,24.5 µM
same,TGI,UACC-62 melanoma,26.7 µM
same,TGI,OVCAR-3 ovarian,> 50.1 µM
same,TGI,MOLT-4 leukemia,23.5 µM
same,TGI,NCI-H460 lung,36.5 µM
same,TGI,UO-31 renal,23.2 µM
same,TGI,MDA-N,28.1 µM
same,TGI,NCI-H226 lung,70.2 µM
same,TGI,SW-620 colon,35.6 µM
same,TGI,MDA-MB-435,26.7 µM
same,TGI,HOP-92 NSCLC,44.8 µM
CCOC(=O)N(C)CCC1CC=CC(=O)C1c1cccc(OC)c1OC (stereo not drawn),TGI,OVCAR-5 ovarian,46.7 µM
same,TGI,MALME-3M melanoma,60.1 µM
same,TGI,HT29 colon,34.1 µM
same,TGI,SF-268 CNS,60 µM
same,TGI,SK-MEL-5 melanoma,22 µM
same,TGI,HCT-15 colon,31.1 µM
same,TGI,EKVX NSCLC,89.8 µM
same,TGI,HCC-2998 colon,25.8 µM
same,TGI,COLO 205 colon,17.8 µM
same,TGI,NCI-H23 lung,36.3 µM
same,TGI,OVCAR-8 ovarian,> 100 µM
same,TGI,SK-OV-3 ovarian,> 100 µM
same,TGI,A498 renal,> 100 µM
same,TGI,TK-10 renal,65.3 µM
same,TGI,SF-295 CNS,98.8 µM
same,TGI,U251 CNS,43 µM
same,TGI,PC-3 prostate,> 100 µM
same,TGI,UACC-257 melanoma,39.3 µM
same,TGI,OVCAR-4 ovarian,> 100 µM
same,TGI,DU-145 prostate,44.4 µM
same,TGI,CAKI-1 renal,91.6 µM
same,TGI,NCI-H522 lung,27.5 µM
same,TGI,CCRF-CEM leukemia,35.7 µM
same,TGI,RXF 393 renal,27.5 µM
same,TGI,SK-MEL-2 melanoma,35 µM
same,TGI,MCF7 breast,56.6 µM
same,TGI,ACHN renal,> 100 µM
same,TGI,T-47D breast,77.1 µM
same,TGI,A549 NSCLC,91 µM
same,TGI,HS 578T breast,> 100 µM
same,TGI,HL-60(TB) leukemia,52.5 µM
same,TGI,RPMI-8226 leukemia,46.6 µM
same,TGI,SN12C renal,39.7 µM
same,TGI,IGROV1 ovarian,> 100 µM
same,TGI,K-562 leukemia,> 100 µM
same,TGI,M14 melanoma,55 µM
same,TGI,SR leukemia,67.1 µM
same,TGI,BT-549 breast,34.3 µM
same,TGI,HCT-116 colon,27.6 µM
same,TGI,SF-539 CNS,> 100 µM
same,TGI,MDA-MB-231 breast,> 100 µM
same,TGI,786-0 renal,45.7 µM
same,TGI,NCI/ADR-RES ovarian,80.1 µM
same,TGI,KM12 colon,33.6 µM
same,TGI,HOP-62 NSCLC,> 100 µM
same,TGI,LOX IMVI melanoma,> 100 µM
same,TGI,SNB-19 CNS,85.6 µM
same,TGI,UACC-62 melanoma,32.5 µM
same,TGI,OVCAR-3 ovarian,38.8 µM
same,TGI,MOLT-4 leukemia,64.5 µM
same,TGI,NCI-H460 lung,48.2 µM
same,TGI,UO-31 renal,35.9 µM
same,TGI,MDA-N,36.4 µM
same,TGI,SW-620 colon,> 100 µM
same,TGI,MDA-MB-435,28.8 µM
same,TGI,HOP-92 NSCLC,> 100 µM
CCOC(=O)NC(OCCN(C)C)(C(F)(F)F)C(F)(F)F,TGI,OVCAR-5 ovarian,> 100 µM
same,TGI,MALME-3M melanoma,> 100 µM
same,TGI,HT29 colon,> 100 µM
same,TGI,SF-268 CNS,> 100 µM
same,TGI,SK-MEL-5 melanoma,> 100 µM
same,TGI,HCT-15 colon,> 100 µM
same,TGI,EKVX NSCLC,> 100 µM
same,TGI,HCC-2998 colon,> 100 µM
same,TGI,SNB-75 CNS,> 100 µM
same,TGI,COLO 205 colon,> 100 µM
same,TGI,NCI-H23 lung,> 100 µM
same,TGI,OVCAR-8 ovarian,> 100 µM
same,TGI,SK-OV-3 ovarian,> 100 µM
same,TGI,A498 renal,> 100 µM
same,TGI,TK-10 renal,> 100 µM
same,TGI,SF-295 CNS,> 100 µM
same,TGI,U251 CNS,> 100 µM
same,TGI,PC-3 prostate,> 100 µM
same,TGI,UACC-257 melanoma,> 100 µM
same,TGI,DU-145 prostate,> 100 µM
same,TGI,CAKI-1 renal,> 100 µM
same,TGI,NCI-H522 lung,> 100 µM
same,TGI,CCRF-CEM leukemia,> 100 µM
same,TGI,RXF 393 renal,> 100 µM
same,TGI,SK-MEL-2 melanoma,> 100 µM
same,TGI,MCF7 breast,> 100 µM
same,TGI,ACHN renal,> 100 µM
same,TGI,T-47D breast,> 100 µM
same,TGI,A549 NSCLC,> 100 µM
same,TGI,HS 578T breast,> 100 µM
same,TGI,HL-60(TB) leukemia,> 100 µM
same,TGI,RPMI-8226 leukemia,> 100 µM
same,TGI,SN12C renal,> 100 µM
same,TGI,IGROV1 ovarian,> 100 µM
same,TGI,K-562 leukemia,> 100 µM
same,TGI,M14 melanoma,> 100 µM
same,TGI,SR leukemia,> 100 µM
same,TGI,SK-MEL-28 melanoma,> 100 µM
same,TGI,BT-549 breast,> 100 µM
same,TGI,HCT-116 colon,> 100 µM
same,TGI,SF-539 CNS,> 100 µM
same,TGI,MDA-MB-231 breast,> 100 µM
same,TGI,786-0 renal,> 100 µM
same,TGI,NCI/ADR-RES ovarian,> 100 µM
same,TGI,KM12 colon,> 100 µM
same,TGI,HOP-62 NSCLC,> 100 µM
same,TGI,LOX IMVI melanoma,> 100 µM
same,TGI,SNB-19 CNS,> 100 µM
same,TGI,UACC-62 melanoma,> 100 µM
same,TGI,OVCAR-3 ovarian,> 100 µM
same,TGI,MOLT-4 leukemia,> 100 µM
same,TGI,NCI-H460 lung,> 100 µM
same,TGI,UO-31 renal,> 100 µM
same,TGI,MDA-N,> 100 µM
same,TGI,NCI-H226 lung,> 100 µM
same,TGI,SW-620 colon,> 100 µM
same,TGI,MDA-MB-435,> 100 µM
same,TGI,HOP-92 NSCLC,> 100 µM
